In US9156801B2, “2-substituted oleanolic acid derivative, method preparing for same, and application thereof” (HANGZHOU BENSHENG PHARMACEUTICAL CO., LTD., priority 2011, dated 2015):
≈ marks a conversion by molar mass, not a printed value.

Tests used:
[1] = system: Hep G2 cell line; test: solid tumor cell growth inhibition, MTT; assay type: cell-based, human; conditions: Homo sapiens; for inhibition at 16 µg/mL: HepG2, 72 h, Hep G2, 16 μg/mL compound, 72 h, read-out: IR (cell proliferation inhibition rate); for IC50: HepG2, Hep G2, 72 h
Procedure: (§1) Hep-2 (laryngeal carcinoma), A549 (human lung cancer), CaES-17 (esophageal cancer cell), PC-3 (prostate cancer), CNE (nasopharyngeal carcinoma cell), and SK-OV-3 (ovarian cancer cell), all of which are purchased from China Center For Type Culture Collection; RKO (human colon adenocarcinoma cell), MGC 803 (human gastric cancer cell), MG63 (osteosarcoma) and U87 MG (malignant glioma cell), all of which are purchased from Fuxiang Bio-tech Co. Ltd., Shanghai, China; PANC-1 (pancreatic cancer), Hep G2 (human liver cancer cell), Becap37 (human breast cancer cell), and Hela (human cervical cancer cell), all of which are donated by Cancer Research Institute of Zhejiang University, China.
(§2) Obtaining 4000 well-growing human solid tumor cells and inoculating them into wells of a 96-well cell culture plate. The culture medium is DMEM High Glucose cell culture medium containing 10% fetal bovine serum. The plate is placed in a carbon dioxide cell incubator (5% CO2) at 37° C. for 24 hours. After adding the 2-substituted oleanolic acid derivatives of different concentrations and mixing uniformly, the plate is placed in a carbon dioxide cell incubator (5% CO2) at 37° C. and incubated for 72 hours. Then the relative number of the living cells is determined by MTT method. In this experiment, the cell proliferation inhibition rate in control group (not treated with any compound) is set as 0%.

[2] = system: PANC-1 cell line; test: solid tumor cell growth inhibition, MTT; assay type: cell-based; conditions: Homo sapiens; for IC50: PANC-1, 72 h; for inhibition at 16 µg/mL: PANC-1, 16 μg/mL compound, 72 h, read-out: IR (cell proliferation inhibition rate)
Procedure: as §1, §2

[3] = system: PC-3 cell line; test: solid tumor cell growth inhibition, MTT; assay type: cell-based; conditions: Homo sapiens; for IC50: PC-3, 72 h; for inhibition at 16 µg/mL: PC-3, 16 μg/mL compound, 72 h, read-out: IR (cell proliferation inhibition rate)
Procedure: as §1, §2

[4] = system: Hela cell line; test: solid tumor cell growth inhibition, MTT; assay type: cell-based; conditions: Homo sapiens, 72 h; for IC50: HeLa; for inhibition at 16 µg/mL: Hela, 16 μg/mL compound, read-out: IR (cell proliferation inhibition rate)
Procedure: as §1, §2

[5] = system: CNE cell line; test: solid tumor cell growth inhibition, MTT; assay type: cell-based; conditions: Homo sapiens, 72 h; for inhibition at 16 µg/mL: 16 μg/mL compound, read-out: IR (cell proliferation inhibition rate)
Procedure: as §1, §2

[6] = system: SK-OV-3 cell line; test: solid tumor cell growth inhibition, MTT; assay type: cell-based; conditions: Homo sapiens; for IC50: SK-OV-3, 72 h; for inhibition at 16 µg/mL: SK-OV-3, 16 μg/mL compound, 72 h, read-out: IR (cell proliferation inhibition rate)
Procedure: as §1, §2

[7] = system: MGC 803 cell line; test: solid tumor cell growth inhibition, MTT; assay type: cell-based; conditions: Homo sapiens; for inhibition at 16 µg/mL: MGC 803, 16 μg/mL compound, 72 h, read-out: IR (cell proliferation inhibition rate); for IC50: MGC 803, 72 h
Procedure: as §1, §2

[8] = system: Becap37 cell line; test: solid tumor cell growth inhibition, MTT; assay type: cell-based; conditions: Homo sapiens; for inhibition at 16 µg/mL: Becap37, 16 μg/mL compound, 72 h, read-out: IR (cell proliferation inhibition rate); for IC50: Becap37, 72 h
Procedure: as §1, §2

[9] = system: MG-63 cell line; test: solid tumor cell growth inhibition, MTT; assay type: cell-based; conditions: Homo sapiens; for IC50: MG-63, 72 h; for inhibition at 16 µg/mL: MG-63, 16 μg/mL compound, 72 h, read-out: IR (cell proliferation inhibition rate)
Procedure: as §1, §2

[10] = system: A549 cell line; test: solid tumor cell growth inhibition, MTT; assay type: cell-based; conditions: Homo sapiens; for IC50: A549, 72 h; for inhibition at 16 µg/mL: A549, 16 μg/mL compound, 72 h, read-out: IR (cell proliferation inhibition rate)
Procedure: as §1, §2

[11] = system: RKO cell line; test: solid tumor cell growth inhibition, MTT; assay type: cell-based; conditions: Homo sapiens, 72 h; for inhibition at 16 µg/mL: 16 μg/mL compound, read-out: IR (cell proliferation inhibition rate)
Procedure: as §1, §2

[12] = system: U87 MG cell line; test: solid tumor cell growth inhibition, MTT; assay type: cell-based; conditions: Homo sapiens, U-87 MG, 72 h; for inhibition at 16 µg/mL: 16 μg/mL compound, read-out: IR (cell proliferation inhibition rate)
Procedure: as §1, §2

[13] = system: CaES-17 cell line; test: solid tumor cell growth inhibition, MTT; assay type: cell-based; conditions: Homo sapiens, CaEs17; for inhibition at 16 µg/mL: CaES-17, 16 μg/mL compound, 72 h, read-out: IR (cell proliferation inhibition rate); for IC50: CaES-17, 72 h
Procedure: as §1, §2

[14] = system: Hep-2 cell line; test: solid tumor cell growth inhibition, MTT; assay type: cell-based; conditions: Homo sapiens; for IC50: HEp-2, 72 h; for inhibition at 16 µg/mL: Hep-2, 16 μg/mL compound, 72 h, read-out: IR (cell proliferation inhibition rate)
Procedure: as §1, §2

[15] = system: RPMI8226 cell line; test: multiple myeloma cell growth inhibition, MTT; assay type: cell-based; conditions: Homo sapiens, RPMI-8226; for inhibition at 16 µg/mL: RPMI8226, 16 μg/mL compound, 72 h, read-out: IR (cell proliferation inhibition rate); for IC50: RPMI8226, 72 h
Procedure: Multiple myeloma cell lines: RPMI8226 (multiple myeloma), purchased from Fuxiang Bio-tech Co. Ltd., Shanghai, China.
(§3) Obtaining 6000 well-growing cells as above and inoculating them into wells of a 96-well cell culture plate. The culture medium is the 1640 cell culture medium containing 10% fetal bovine serum. After adding the 2-substituted oleanolic acid derivatives of different concentrations and mixing uniformly, placing the plate in a carbon dioxide cell incubator (5% CO2) at 37° C. and incubated for 72 hours. Then the relative number of viable cells is determined by MTT method. In this experiment, cell proliferation inhibition rate in control group (not treated with any compound) is set as 0%.

[16] = system: K562/adr cell line; test: leukemia cell growth inhibition, MTT; assay type: cell-based; conditions: Homo sapiens, 72 h; for IC50: K562/Adr; for inhibition at 16 µg/mL: K562/adr, 16 μg/mL compound, read-out: IR (cell proliferation inhibition rate)
Text: (§4) Leukemia cell lines: leukemia cell lines: K562/adr (drug-resistant, chronic myeloid leukemia, CML), NB4 (acute promyelocytic leukemia, AML), Kasumi-1 (acute myeloid leukemia M2 type, AML-M2), Jurkat (acute lymphoblastic leukemia, ALL), all of which are donated by Cancer Research Institute of Zhejiang University, China; and H9 (acute lymphoblastic leukemia, ALL), which is purchased from China Center for Type Culture Collection (CCTCC).
as §3, with “well-growing leukemia” for “well-growing”, “cells” for “cells as above”

[17] = system: NB4 cell line; test: leukemia cell growth inhibition, MTT; assay type: cell-based; conditions: Homo sapiens, NB-4; for inhibition at 16 µg/mL: NB4, 16 μg/mL compound, 72 h, read-out: IR (cell proliferation inhibition rate); for IC50: NB4, 72 h
Text: as §4
as §3, with “well-growing leukemia” for “well-growing”, “cells” for “cells as above”

[18] = system: Kasumi-1 cell line; test: leukemia cell growth inhibition, MTT; assay type: cell-based; conditions: Homo sapiens; for inhibition at 16 µg/mL: Kasumi-1, 16 μg/mL compound, 72 h, read-out: IR (cell proliferation inhibition rate); for IC50: Kasumi-1, 72 h
Text: as §4
as §3, with “well-growing leukemia” for “well-growing”, “cells” for “cells as above”

[19] = system: H9 cell line; test: leukemia cell growth inhibition, MTT; assay type: cell-based; conditions: Homo sapiens; for IC50: H9, 72 h; for inhibition at 16 µg/mL: H9, 16 μg/mL compound, 72 h, read-out: IR (cell proliferation inhibition rate)
Text: as §4
as §3, with “well-growing leukemia” for “well-growing”, “cells” for “cells as above”

[20] = system: Jurkat cell line; test: leukemia cell growth inhibition, MTT; assay type: cell-based; conditions: Homo sapiens, 72 h; for inhibition at 16 µg/mL: 16 μg/mL compound, read-out: IR (cell proliferation inhibition rate)
Text: as §4
as §3, with “well-growing leukemia” for “well-growing”, “cells” for “cells as above”

Row | SMILES | inhibition at 16 µg/mL [1] | IC50 [1] | IC50 [2] | inhibition at 16 µg/mL [2] | IC50 [3] | inhibition at 16 µg/mL [3] | IC50 [4] | inhibition at 16 µg/mL [4] | inhibition at 16 µg/mL [5] | IC50 [5] | IC50 [6] | inhibition at 16 µg/mL [6] | inhibition at 16 µg/mL [7] | IC50 [7] | inhibition at 16 µg/mL [8] | IC50 [8] | IC50 [9] | inhibition at 16 µg/mL [9] | IC50 [10] | inhibition at 16 µg/mL [10] | further results
1 | COC(=O)[C@]12CCC(C)(C)C[C@H]1C1=CC[C@@H]3[C@@]4(C)CC(C(=O)NCCN5CCCCC5)C(=O)C(C)(C)[C@@H]4CC[C@@]3(C)[C@]1(C)CC2 (some centres unmarked) [BS-OA-004] | 100% | 4.89 µg/mL (≈ 7.85 µM) | 8.77 µg/mL (≈ 14.1 µM) | 94.1% | 9.91 µg/mL (≈ 15.9 µM) | 89.8% | 9.28 µg/mL (≈ 14.9 µM) | 99.4% | 97.3% | 8.46 µg/mL (≈ 13.6 µM) | 9.14 µg/mL (≈ 14.7 µM) | 94.9% | 98.1% | 7.32 µg/mL (≈ 11.8 µM) | 43.9% | > 16 µg/mL | 8.37 µg/mL (≈ 13.4 µM) | 99% | 7.7 µg/mL (≈ 12.4 µM) | 92% | inhibition at 16 µg/mL [11]: 98.9%; IC50 [11]: 7.4 µg/mL (≈ 11.9 µM); inhibition at 16 µg/mL [12]: 98%; IC50 [12]: 10 µg/mL (≈ 16.1 µM); inhibition at 16 µg/mL [13]: 81.2%; IC50 [13]: 8.88 µg/mL (≈ 14.3 µM); IC50 [14]: 10.1 µg/mL (≈ 16.2 µM); inhibition at 16 µg/mL [14]: 85.5%; inhibition at 16 µg/mL [15]: 98.3%; IC50 [15]: 2.08 µg/mL (≈ 3.34 µM); IC50 [16]: 2.41 µg/mL (≈ 3.87 µM); inhibition at 16 µg/mL [16]: 98.3%; inhibition at 16 µg/mL [17]: 100%; IC50 [17]: 2.84 µg/mL (≈ 4.56 µM); inhibition at 16 µg/mL [18]: 99.6%; IC50 [18]: 6.5 µg/mL (≈ 10.4 µM); IC50 [19]: 5.67 µg/mL (≈ 9.1 µM); inhibition at 16 µg/mL [19]: 98.2%; inhibition at 16 µg/mL [20]: 97.7%; IC50 [20]: 6.15 µg/mL (≈ 9.87 µM)
2 | COC(=O)[C@]12CCC(C)(C)CC1C1=CCC3[C@@]4(C)CC(C(=O)NCCN5CCCC5)C(=O)C(C)(C)C4CC[C@@]3(C)[C@]1(C)CC2 (some centres unmarked) [BS-OA-005] | > 96% | 2.53 µg/mL (≈ 4.15 µM) | 4.54 µg/mL (≈ 7.46 µM) | 97.8% | 5.11 µg/mL (≈ 8.39 µM) | 99.2% | 4.05 µg/mL (≈ 6.65 µM) | 98.6% | 98.6% | 3.65 µg/mL (≈ 5.99 µM) | 4.23 µg/mL (≈ 6.95 µM) | 98.3% | 99.3% | 2.7 µg/mL (≈ 4.43 µM) | 98.6% | 5.68 µg/mL (≈ 9.33 µM) | 2.31 µg/mL (≈ 3.79 µM) | 99.7% | 2.19 µg/mL (≈ 3.6 µM) | 96.8% | inhibition at 16 µg/mL [11]: 98.7%; IC50 [11]: 3.19 µg/mL (≈ 5.24 µM); inhibition at 16 µg/mL [12]: 100%; IC50 [12]: 2.5 µg/mL (≈ 4.11 µM); inhibition at 16 µg/mL [13]: 98.9%; IC50 [13]: 3.34 µg/mL (≈ 5.49 µM); IC50 [14]: 5.09 µg/mL (≈ 8.36 µM); inhibition at 16 µg/mL [14]: 99.2%; inhibition at 16 µg/mL [15]: 99.2%; IC50 [15]: 0.69 µg/mL (≈ 1.13 µM); IC50 [16]: 1.16 µg/mL (≈ 1.91 µM); inhibition at 16 µg/mL [16]: 100%; inhibition at 16 µg/mL [17]: 100%; IC50 [17]: 2.73 µg/mL (≈ 4.48 µM); inhibition at 16 µg/mL [18]: 99.8%; IC50 [18]: 3.98 µg/mL (≈ 6.54 µM); IC50 [19]: 3.16 µg/mL (≈ 5.19 µM); inhibition at 16 µg/mL [19]: 96.2%; inhibition at 16 µg/mL [20]: 98.1%; IC50 [20]: 2.33 µg/mL (≈ 3.83 µM)
